Patent US20240228493A1, “LRRK2 INHIBITORS AND USES THEREOF” (NEURON23, ICN., priority 2022, published 2024)

Key:
[1] = biological target: T1, wt human LRRK2, catalytic site (Homo sapiens, UniProt Q5S007); assay: TR-FRET LanthaScreen Tb Kinase Activity Assay, LRRK2 inhibition; format: biochemical; details: 2 nM wt human LRRK2, 400 nM peptide, 38 μM ATP
T1 construct: wt human LRRK2, catalytic site, catalytic site (ThermoFisher/USA); purchased ThermoFisher
Description: The compounds disclosed herein were tested for their inhibitory effect on LRRK2 kinase according to the following procedures.
The protocol for basic TR-FRET LanthaScreen Tb Kinase Activity Assay inhibitor studies were as follows. LanthaScreen Kinase Activity Assays (ThermoFisher/USA) to evaluate inhibitors were performed by addition of 100 nL of test compound in corresponding DMSO dilutions/5 μL of kinase/fluorescein-ERM (LRRKtide) peptide mixture, Compound & kinase were pre-incubated for 15 minutes, then 5 μl of ATP into 384 well small volume plates. After incubation for 120 minutes at room temperature, the detection reagents containing Tb-anti-pLRRKtide antibody were added to monitor phosphorylation level of peptide. Then, after 60 min minutes incubation at room temperature plates were read in Envision. Data analysis of emission ratios was according to LanthaScreen Tb Kinase Activity Assay protocol.
Kinase and assay components were adjusted to final concentrations according to the kit protocol. For LRRK2: 2 nM wt human LRRK2, catalytic site, catalytic site (ThermoFisher/USA), 400 nM peptide, 38 μM ATP in 1× Kinase Buffer A. […]
Kinase and assay components were adjusted to final concentrations according to the kit protocol.

[2] = tested on: Caco-2 cells; assay: Caco-2 bidirectional permeability; format: in vitro ADME; details: for Caco-2 ER: Efflux Ratio=Papp(BA)/Papp(AB); for Caco-2 A2B (10^−6 cm/s): apical to basolateral; for Caco-2 A2B (10^−6 cm/s) / Caco-2 B2A (10^−6 cm/s): 2 hours, pH 7.4; for Caco-2 B2A (10^−6 cm/s): basolateral to apical
Description: The compounds disclosed herein were tested in vitro on CaCo2 cell penetration according to the following procedures.
Caco-2 cells purchased from ATCC were seeded onto […] (PET) in 96-well Corning Insert plates at 1×10^5 cells/cm^2. The media were refreshed every 4 to 5 days until the 21st to 28th day for confluent cell monolayer formation.
Experiments were run in duplicate using a HBSS transport buffer containing 10 mM HEPES at pH 7.4. The test article TEST COMPOUND was tested bi-directionally at […] concentrations, the control compound digoxin was tested bi-directionally at 10 μM, and nadolol and metoprolol were tested at 2.0 μM in the A to B direction. Final DMSO concentrations were adjusted to less than 1%. The plates were incubated for 2 hours in a CO2 incubator at 37±1° C. with 5% CO2 at saturated humidity without shaking. Following incubation, samples were mixed with acetonitrile containing internal standard and centrifuged at 3200×g for 10 minutes. Then 200 μL of supernatant was taken from all samples. For TEST COMPOUND and digoxin, the supernatant was diluted with 200 μL of ultra-pure water and for nadolol and metoprolol, the supernatant was diluted with 600 μL of ultra-pure water. All samples were analyzed by LC-MS/MS. Concentrations of TEST COMPOUND and control compounds were determined in starting solutions, donor well solutions, and receiver well solutions using peak area ratios (PAR) of analyte to internal standard. After the transport assay, a lucifer yellow rejection assay was run to determine the Caco-2 cell monolayer integrity.
The apparent permeability (Papp), the % recovery and the efflux ratio were calculated as follows:
Papp=(dCr/dt)×Vr/(A×C0) 1.
Efflux Ratio=Papp(BA)/Papp(AB) 3. • Where: • dCr/dt is the slope of the cumulative concentration in the receiver compartment versus time (mM/s). • Vr and Vd is the volume in the receiver and donor compartments (0.075 mL on the apical side, 0.25 mL on the basolateral side), respectively. • A is the surface area of the cell monolayer (0.0804 cm^2). • C0 is the measured donor concentrations (μM) at the beginning of the experiment. • Cd and Cr are the final measured concentrations in the donor and receiver compartments, respectively.

[3] = tested on: human hepatocyte; assay: Human hepatocyte stability, predicted hepatic clearance (h-Hept CL predict); format: in vitro ADME; details: human hepatocytes, 0.5×10^6 cells/mL, 1 μM, values without asterisk
Description: The compounds disclosed herein were tested in vitro on human hepatocyte for in vitro h-Hept CL predict according to the following procedures. • 1. Compound sock solutions were prepared by dissolving test compound and positive control in dimethyl sulfoxide (DMSO) at a concentration of 10 mM. Stock solutions were then diluted to 100 μM solutions by combining 198 μL of 50% acetonitrile/50% water with 2 μL of the 10 mM stock in separate conical tubes. • 2. Cryopreserved hepatocytes were prepared as follows: Incubation medium (William's E Medium supplemented with GlutaMAX) and hepatocyte thawing medium were placed in a 37° C. water bath and allowed to warm for at least 15 minutes prior to use. Cryopreserved hepatocytes were removed from storage, ensuring that vials remained at cryogenic temperatures until thawed. Cells were thawed by placing the vials in a 37° C. water bath and gently shaking the vials for 2 minutes. After thawing was completed, vials were sprayed with 70% ethanol and transferred to a biosafety cabinet. Hepatocytes were transferred into 50 mL conical tube containing thawing medium using wide-bore pipette tips. Tubes were placed into a centrifuge and spun at 100 g for 10 minutes. Then thawing medium was aspirated and hepatocytes were resuspended in enough incubation medium to yield ˜1.5×10^6 cells/mL. Cells were counted using acridine orange and propidium iodide (AO/PI) staining, and the viable cell density was determined. Cells were diluted with incubation medium to a working cell density of 0.5×10^6 viable cells/mL. • 3. To determine hepatocyte stability, 198 μL of hepatocytes were transferred into each well of a 96-well non-coated plate. Plates were placed in an incubator to allow the hepatocytes to warm for 10 minutes. • 4. The reaction was started by transferring 2 μL of the 100 μM test compound or positive control solution into respective wells of the 96-well non-coated plates. Plates were returned to the incubator until 25 μL aliquots of well contents were sampled at time points of 0, 15, 30, 60, 90 and 120 minutes. The aliquots were then mixed with 6 volumes (150 μL) of acetonitrile containing internal standard, IS (100 nM alprazolam, 200 nM caffeine and 100 nM tolbutamide) to terminate the reaction and vortexed for 5 minutes. After centrifuging the samples for 45 minutes at 3,220 g, aliquots of 100 μL of the supernatant were taken and diluted with 100 μL of ultra-pure water. The mixture was used for LC/MS/MS analysis. All incubations were performed in duplicate.
All calculations were carried out using Microsoft Excel. Peak area ratios (PAR) were determined from extracted ion chromatograms. The in vitro half-life (t1/2) of parent compound was determined by regression analysis of the percent parent disappearance vs. time curve as follows:
Conversion of the in vitro t1/2 (in minutes) into the in vitro intrinsic clearance (in vitro CLint, in μL/min/1×10^6 cells) was done using the following equation (mean of duplicate determinations): […]
The scaled-up intrinsic clearance (CLint, mL/min/kg), predicted hepatic clearance (CLH, mL/min/kg) and hepatic extraction ratio (ER) were calculated using the following equations:
CLint=(0.693/t1/2)*(1/(hepatocyte concentration (0.5*10^6 cells/mL)))*scaling factors (Table (A) Appendix Table 1)
CLHept-predict=(QH*Scaled-up CLint*fub)/(QH+Scaled-up CLint*fub)
ER=CLH/QH • Where: • V=incubation volume (0.2 mL) • N=number of hepatocytes per well (0.1*10^6 cells) • QH=hepatic blood flow (mL/min/kg) (Table (A) Appendix Table 1) • fub=fraction of unbound drug in plasma, assumed to be 1

T1 sequence (Q5S007 1879-2138 limits assumed): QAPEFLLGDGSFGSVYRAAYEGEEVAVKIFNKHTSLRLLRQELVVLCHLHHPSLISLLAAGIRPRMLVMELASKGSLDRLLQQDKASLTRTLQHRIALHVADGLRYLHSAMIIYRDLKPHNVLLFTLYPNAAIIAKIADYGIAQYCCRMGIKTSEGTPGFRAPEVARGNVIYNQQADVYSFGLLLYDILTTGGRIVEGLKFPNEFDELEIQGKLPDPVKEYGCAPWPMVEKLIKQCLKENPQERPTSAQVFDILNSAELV

| IC50 [1] [nM] | Caco-2 ER [2] | Caco-2 B2A (10^−6 cm/s) [2] | Structure (SMILES) | Caco-2 A2B (10^−6 cm/s) [2] | hHep Cl (mL/min/kg) [3] |
| --- | --- | --- | --- | --- | --- |
| < 1 | L (L (Likely)”: ER≥2.5) | H (H (High permeability)”: A2B (B2A)>5) | Cc1n[nH]c2c1N=C(c1c(F)cccc1F)Nc1cnc(N3CCC[C@](C)(C#N)C3)cc1-2 (single isomer, unassigned) [Example 13] | M (M (Moderate permeability)”: 1≤A2B (B2A)≤5) | I (I (Intermediate Cl)”: 6.3≤Hep Cl (mL/min/kg)≤14.7) |
| < 1 | L (L (Likely)”: ER≥2.5) | H (H (High permeability)”: A2B (B2A)>5) | Cc1n[nH]c2c1N=C(c1c(F)cccc1F)Nc1cnc(N3CCN(CCF)CC3)cc1-2 [Example 1, 8-(2,6-difluorophenyl)-13-[4-(2-fluoroethyl)piperazin-1-y1]-5-methyl-3,4,7,9,12-pentazatricyclo[8.4.0.02,6]tetradeca-1(10),2(6),4,7,11,13-hexaene] | M (M (Moderate permeability)”: 1≤A2B (B2A)≤5) | I (I (Intermediate Cl)”: 6.3≤Hep Cl (mL/min/kg)≤14.7) |
| < 1 | L (L (Likely)”: ER≥2.5) | H (H (High permeability)”: A2B (B2A)>5) | Cc1n[nH]c2c1N=C(c1c(F)cccc1F)Nc1cnc(N3CCNC4(COC4)C3)cc1-2 [Example 7, 8-[8-(2,6-difluorophenyl)-5-methyl-3,4,7,9,12-pentazatricyclo[8.4.0.02,6]tetradeca-1(10),2(6),4,7,11,13-hexaen-13-y1]-2-oxa-5,8-diazaspiro[3.5]nonane] | L (L (Low permeability)”: A2B (B2A)<1) | L (L (Low Cl)”: Hep Cl (mL/min/kg)<6.3) |
| < 1 | L (L (Likely)”: ER≥2.5) | H (H (High permeability)”: A2B (B2A)>5) | Cc1n[nH]c2c1N=C(c1c(F)cccc1F)Nc1cnc(N3CCN(C)CC3)cc1-2 [Example 8, 8-(2,6-difluorophenyl)-5-methyl-13-(4-methylpiperazin-1-y1)-3,4,7,9,12-pentazatricyclo[8.4.0.02,6]tetradeca-1(10),2(6),4,7,11,13-hexaene] | M (M (Moderate permeability)”: 1≤A2B (B2A)≤5) | L (L (Low Cl)”: Hep Cl (mL/min/kg)<6.3) |
| 1 to 100 | L (L (Likely)”: ER≥2.5) | H (H (High permeability)”: A2B (B2A)>5) | Cc1n[nH]c2c1N=C(c1c(F)cccc1F)Nc1cnc(N3CCCOCC3)cc1-2 [Example 9, 4-[8-(2,6-difluorophenyl)-5-methyl-3,4,7,9,12-pentazatricyclo[8.4.0.02,6]tetradeca-1(10),2(6),4,7,11,13-hexaen-13-y1]-1,4-oxazepane] | M (M (Moderate permeability)”: 1≤A2B (B2A)≤5) | L (L (Low Cl)”: Hep Cl (mL/min/kg)<6.3) |
| 1 to 100 | L (L (Likely)”: ER≥2.5) | H (H (High permeability)”: A2B (B2A)>5) | Cc1n[nH]c2c1N=C(c1c(F)cccc1F)Nc1cnc(N3CCNCC3)cc1-2 [Example 10, 8-(2,6-difluorophenyl)-5-methyl-13-piperazin-1-yl-3,4,7,9,12-pentazatricyclo[8.4.0.02,6]tetradeca-1(10),2(6),4,7,11,13-hexaene] | L (L (Low permeability)”: A2B (B2A)<1) | L (L (Low Cl)”: Hep Cl (mL/min/kg)<6.3) |
| < 1 | L (L (Likely)”: ER≥2.5) | H (H (High permeability)”: A2B (B2A)>5) | CCS(=O)(=O)N1CCN(c2cc3c(cn2)NC(c2c(F)cccc2F)=Nc2c(C)n[nH]c2-3)CC1 [Example 11, 8-(2,6-difluorophenyl)-13-(4-ethylsulfonylpiperazin-1-y1)-5-methyl-3,4,7,9,12-pentazatricyclo[8.4.0.02, 6]tetradeca-1(10),2(6),4,7,11,13-hexaene] | L (L (Low permeability)”: A2B (B2A)<1) | I (I (Intermediate Cl)”: 6.3≤Hep Cl (mL/min/kg)≤14.7) |

| Structure (SMILES) | IC50 [1] [nM] | Caco-2 ER [2] | Caco-2 B2A (10^−6 cm/s) [2] | Caco-2 A2B (10^−6 cm/s) [2] | hHep Cl (mL/min/kg) [3] |
| --- | --- | --- | --- | --- | --- |
| Cc1n[nH]c2c1N=C(c1c(F)cccc1F)Nc1cnc(N3CCO[C@@]4(CCOC4)C3)cc1-2 (single isomer, unassigned) [Example 3] | < 1 | L (L (Likely)”: ER≥2.5) | H (H (High permeability)”: A2B (B2A)>5) | M (M (Moderate permeability)”: 1≤A2B (B2A)≤5) | L (L (Low Cl)”: Hep Cl (mL/min/kg)<6.3) |
| Cc1n[nH]c2c1N=C(c1c(F)cccc1F)Nc1cnc(N3CCO[C@]4(CCOC4)C3)cc1-2 (single isomer, unassigned) [Example 4] | < 1 | L (L (Likely)”: ER≥2.5) | H (H (High permeability)”: A2B (B2A)>5) | M (M (Moderate permeability)”: 1≤A2B (B2A)≤5) | L (L (Low Cl)”: Hep Cl (mL/min/kg)<6.3) |
| Cc1n[nH]c2c1N=C(c1c(F)cccc1F)Nc1cnc(N3CCOC4(COC4)C3)cc1-2 [Example 5, 8-[8-(2,6-difluorophenyl)-5-methyl-3,4,7,9,12-pentazatricyclo[8.4.0.02,6]tetradeca-1(10),2(6),4,7,11,13-hexaen-13-y1]-2,5-dioxa-8-azaspiro[3.5]nonane] | < 1 | L (L (Likely)”: ER≥2.5) | H (H (High permeability)”: A2B (B2A)>5) | L (L (Low permeability)”: A2B (B2A)<1) | L (L (Low Cl)”: Hep Cl (mL/min/kg)<6.3) |
